Patent publication US10662218B2, “Analogs of celastrol” (ERX Pharmaceuticals, Inc., priority 2015, dated 2020)
≈ marks a conversion by molar mass, not a printed value. Where “and” joins values, the source holds several entries; their conditions need not be identical. Identical values can stand only once. Entries after “also recorded” stand apart in the source; their conditions may differ. Like-named read-outs stand apart in the source and are kept apart here. Blank lines part the entries; values can stand above or below the molecule they belong to.

Columns and labels:
[1] = Compound solubility in PBS (pH 7.4), LC-MS/MS; conditions: PBS (pH 7.4), pH 7.4, aqueous buffer, kinetic from dmso stock
Experimental: • Test concentration: 100 μM (1% of DMSO) • Test systems: PBS (pH 7.4) • Incubation condition: shaken (1000 rpm) for 1 h at room temperature • Sample size: Duplicates (n=2) • Bioanalytical method: LC-MS/MS

[2] = system: C57BL/6 Diet Induced Obese (DIO) mice; conditions: I.P. administration
Experimental: The following test compounds were studied to determine any anti-obesity effect when administered to rodents. First, test compounds were formulated in 50, 100, 200, 400, 500, 1000 and 2000 μg/kg doses and administered once daily in a dose volume of 2 mL/kg i.p. for multiple days. Test compounds were compared to administration of vehicle to mice. The experiment consisted of two phases: a pre-dosing phase and a dosing phase. Weight of the animals in each testing group was measured daily. Fluid samples were taken as well.
Descriptive statistics (n, mean, standard error of the mean, standard deviation) were completed. Additionally, one way analysis of variance followed by Dunnett's post-hoc test was performed on body weight (cumulative body weight change), glucose (glucose percent change), and food consumption (cumulative food consumption). Area under the curve (for body weight, cumulative body weight change, daily body weight change, and food consumption) was computed for treatment groups. An appropriate comparison test, such as one-way analysis of variance and Dunnett's, was performed on the group means for the area under the curve computations.

[3] = system: C57BL/6 Diet Induced Obese (DIO) mice; assay: Oral (P.O.) administration study in DIO mice: in vivo activity, body weights; set-up: species or system mouse; conditions: for Individual Body Weight: individual male animals; for Body weight, Mean / change in vivo at 2 mg/kg: male; for change in vivo at 2 mg/kg: Mus musculus, po, read-out: Body weight, %-Diff
How it was run: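 Male C57BL/6 DIO mice (21-22 weeks, 29.8-40.1 g) were gavage-acclimated with vehicle, then dosed orally once daily for 10 days at 2 mL/kg. Body weight was recorded daily before dosing. Cumulative change and AUC were analysed by one-way ANOVA with Dunnett's test.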

[4] = system: C57BL/6 Diet Induced Obese (DIO) mice; assay: Oral (P.O.) administration study in DIO mice: food consumption; format: in vivo, mouse; conditions: 2 mg/kg oral gavage once daily for 10 days, compared with controls
Experimental: (§1) Dose formulations were administered by oral gavage once daily for 10 days at a dose volume of 2 mL/kg. Doses were based on the most recently recorded scheduled body weight.
A quantitative assessment of food consumption was recorded daily on Days 11 through 14 of the predose phase and daily prior to dosing during the dosing phase.
(§2) Descriptive statistics (n, mean, standard error of the mean, standard deviation) were completed. Additionally, one-way analysis of variance followed by Dunnett's post-hoc test were performed on body weight (cumulative body weight change), glucose (glucose percent change), and food consumption (cumulative food consumption). Area under the curve (for body weight, cumulative body weight change, daily body weight change, and food consumption) was computed for treatment groups. An appropriate comparison test, such as one-way analysis of variance and Dunnett's, was performed on the group means for the area under the curve computations. Any additional statistical analysis and interpretation of the results were the responsibility of the sponsor.

[5] = system: C57BL/6 Diet Induced Obese (DIO) mice; assay: Oral (P.O.) administration study in DIO mice: blood glucose level after 6 hours of fasting; format: in vivo, mouse; conditions: 2 mg/kg oral gavage once daily for 10 days, compared with controls
Experimental: as §1
Blood for blood glucose was collected from all animals via tail clip on Day 14 of the predose phase, and Day 11 of the dosing phase after 6 hours of fasting. A drop of blood from each animal was placed onto two different Accu-Chek® Aviva glucometers to assess glucose values. A third value was taken, if necessary.
as §2

[6] = system: C57BL/6 Diet Induced Obese (DIO) mice; assay: Oral (P.O.) administration study in DIO mice: animal fate (mortality) and clinical observations; conditions: mouse, in vivo, 2 mg/kg
How it was run: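 Male C57BL/6 DIO mice received 2 mg/kg of each compound by oral gavage once daily for 10 days; vehicle was 1% methyl cellulose in citric acid/phosphate buffer. Mortality and clinical signs recorded alongside body weight, food intake and blood glucose; animals sacrificed Day 11.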

[7] = Solubility (μM) Mean, Table 6-B, test concentration 100 μM (1% of DMSO), shaken (1000 rpm) 1 h at room temperature, n = 2
[8] = 2 mg/kg oral gavage once daily for 10 days, compared with controls

- solubility at 1 h [1, 7]: 8.56 µM (≈ 3.97 µg/mL)
- solubility at 1 h ([1]; Solubility (μM), Table 6-D): 8.56 µM (≈ 3.97 µg/mL)
Compound: COC1=C(C)C2=CC=C3[C@@](C)(CC[C@@]4(C)[C@@H]5C[C@](C)(C(N)=O)CC[C@]5(C)CC[C@]34C)C2=CC1=O [ERX1031]
- activity ([2]; dose 100 μg/kg): −
- activity ([2]; dose 400 μg/kg): ++

- solubility at 1 h [1, 7]: 0.79 µM (≈ 0.341 µg/mL)
- solubility at 1 h ([1]; Solubility (μM), Table 6-D): 0.791 µM (≈ 0.342 µg/mL)
Compound: CC1=C(O)C(=O)C=C2C1=CC=C1[C@@]2(C)CC[C@@]2(C)[C@@H]3C[C@](C)(C#N)CC[C@]3(C)CC[C@]12C [ERX1015]
- activity ([2]; dose 100 μg/kg): ++

- solubility at 1 h [1, 7]: 1.13 µM (≈ 0.568 µg/mL)
- solubility at 1 h ([1]; Solubility (μM), Table 6-D): 1.13 µM (≈ 0.568 µg/mL)
Compound: CCNC(=O)OC1=C(C)C2=CC=C3[C@@](C)(CC[C@@]4(C)[C@@H]5C[C@](C)(C#N)CC[C@]5(C)CC[C@]34C)C2=CC1=O [ERX1047]
- activity ([2]; dose 100 μg/kg): −
- activity ([2]; dose 400 μg/kg): ++

Continued, molecule first:

Compound: CC1=C(O)C(=O)C=C2C1=CC=C1[C@@]2(C)CC[C@@]2(C)[C@@H]3C[C@](C)(C(=O)O)CC[C@]3(C)CC[C@]12C [ERX1000-4, Celastrol]
- area under the curve (AUC) for cumulative body weight change [3, 8]: statistically significant decreases
- area under the curve (AUC) for daily body weight change [3, 8]: statistically significant decreases
- cumulative body weight change [3, 8]: statistically significant decreases
- Individual Body Weight, PRED 11 ([3]; individual male DIO mouse of the 2 mg/kg group, pre-dose phase day 11 (baseline)): 35.9 g and 35.1 g and 37.3 g and 34.5 g and 37.5 g
- Individual Body Weight, PRED 12 ([3]; individual male DIO mouse of the 2 mg/kg group, pre-dose phase day 12 (baseline)): 35.2 g and 33.5 g and 37.4 g and 35.5 g and 37.3 g
- Individual Body Weight, PRED 13 ([3]; individual male DIO mouse of the 2 mg/kg group, pre-dose phase day 13 (baseline)): 35.1 g and 32.5 g and 37.7 g and 34.0 g and 36.0 g
- Individual Body Weight, PRED 14 ([3]; individual male DIO mouse of the 2 mg/kg group, pre-dose phase day 14 (baseline)): 35.5 g and 32.9 g and 37.9 g and 34.6 g and 37.2 g
- Individual Body Weight, DSNG 1 ([3]; individual male DIO mouse, 2 mg/kg, dosing phase day 1, 2 mg/kg): 34.6 g and 30.8 g and 37.0 g and 33.5 g and 34.9 g
- Individual Body Weight, DSNG 2 ([3]; individual male DIO mouse, 2 mg/kg, dosing phase day 2, 2 mg/kg): 34.4 g and 30.8 g and 36.4 g and 33.5 g and 35.0 g
- cumulative food intake [4]: statistically significant decreases
- glucose value percent change [5]: Statistically significant changes; also recorded: statistically significant decreases

Compound: CCOC1=C(C)C2=CC=C3[C@@](C)(CC[C@@]4(C)[C@@H]5C[C@](C)(C(N)=O)CC[C@]5(C)CC[C@]34C)C2=CC1=O [ERX1107]
- solubility at 1 h [1, 7]: 11.4 µM (≈ 5.45 µg/mL)
- solubility at 1 h ([1]; Solubility (μM), Table 6-D): 11.4 µM (≈ 5.45 µg/mL)
- Individual Body Weight ([3]; 2 mg/kg, Phase Day DSNG 1): 33.6 g and 35.8 g and 36.3 g and 31.2 g and 34.1 g
- Individual Body Weight ([3]; 2 mg/kg, Phase Day DSNG 2): 33.5 g and 36.5 g (2×) and 31.0 g and 33.9 g
- Individual Body Weight ([3]; 2 mg/kg, Phase Day PRED 11 (pre-dose baseline)): 34.1 g (2×) and 36.6 g and 37.7 g and 36.2 g
- Individual Body Weight ([3]; 2 mg/kg, Phase Day PRED 12 (pre-dose baseline)): 35.1 g and 37.5 g and 37.9 g and 33.2 g and 34.6 g
- Individual Body Weight ([3]; 2 mg/kg, Phase Day PRED 13 (pre-dose baseline)): 34.9 g and 38.0 g and 37.6 g and 31.9 g and 33.8 g
- Individual Body Weight ([3]; 2 mg/kg, Phase Day PRED 14 (pre-dose baseline)): 35.1 g and 37.5 g and 37.7 g and 32.5 g and 34.6 g
- Body weight, Mean ([3]; DIO mice, 2 mg/kg, phase DSNG, Day 7): 32.4 g
- Body weight, Mean ([3]; DIO mice, 2 mg/kg, phase DSNG, Day 8): 32.3 g
- Body weight, Mean ([3]; DIO mice, 2 mg/kg, phase DSNG, Day 9): 32.2 g
- Body weight, Mean ([3]; DIO mice, 2 mg/kg, phase DSNG, Day 10): 32.4 g
- Body weight, Mean ([3]; DIO mice, 2 mg/kg, phase DSNG, Day 11): 32.7 g
- Body weight, Mean ([3]; Day 1, DSNG phase, 2 mg/kg, N=5): 34.2 g
- Body weight, Mean ([3]; Day 2, DSNG phase, 2 mg/kg, N=5): 34.3 g
- Body weight, Mean ([3]; Day 3, DSNG phase, 2 mg/kg, N=5): 33.4 g
- Body weight, Mean ([3]; Day 4, DSNG phase, 2 mg/kg, N=5): 33.2 g
- Body weight, Mean ([3]; Day 5, DSNG phase, 2 mg/kg, N=5): 33.1 g
- Body weight, Mean ([3]; Day 6, DSNG phase, 2 mg/kg, N=5): 32.7 g
- change in vivo at 2 mg/kg ([3]; 24 h, Day 1, DSNG phase, 2 mg/kg, difference of group mean): 0%
- change in vivo at 2 mg/kg ([3]; 48 h, Day 2, DSNG phase, 2 mg/kg, difference of group mean): -1%
- change in vivo at 2 mg/kg ([3]; 72 h, Day 3, DSNG phase, 2 mg/kg, difference of group mean): -1%
- change in vivo at 2 mg/kg ([3]; 96 h, Day 4, DSNG phase, 2 mg/kg, difference of group mean): -1%
- change in vivo at 2 mg/kg ([3]; 120 h, Day 5, DSNG phase, 2 mg/kg, difference of group mean): -2%
- change in vivo at 2 mg/kg ([3]; 144 h, Day 6, DSNG phase, 2 mg/kg, difference of group mean): -2%
- change in vivo at 2 mg/kg ([3]; 168 h, DIO mice, 2 mg/kg, phase DSNG, Day 7, difference of group mean from vehicle group 1): -3%
- change in vivo at 2 mg/kg ([3]; 192 h, DIO mice, 2 mg/kg, phase DSNG, Day 8, difference of group mean from vehicle group 1): -4%
- change in vivo at 2 mg/kg ([3]; 216 h, DIO mice, 2 mg/kg, phase DSNG, Day 9, difference of group mean from vehicle group 1): -3%
- change in vivo at 2 mg/kg ([3]; 240 h, DIO mice, 2 mg/kg, phase DSNG, Day 10, difference of group mean from vehicle group 1): -3%
- change in vivo at 2 mg/kg ([3]; 264 h, DIO mice, 2 mg/kg, phase DSNG, Day 11, difference of group mean from vehicle group 1): -4%
- Individual Animal Fate: Fate Status [6]: Scheduled Sacrifice
